Measured values as given in patent publication US20110281933A1, “METHODS AND COMPOSITIONS FOR THE MANAGEMENT OF CARDIOVASCULAR DISEASE WITH OLIGONUCLEOTIDES” (Saint Louis University, priority 2010, published 2011).

Legend:
miR-33 [1] = assay: Silencing miR-33 rescues liver damage induced by simvastatin and cholate diet (Example 9); format: in vivo, mice
From the text: Samples were collected after 7 days on the diet, or when mice appeared moribund. […] (B) Percentage of body weight, compared to the initial mass of each animal. Data are shown as mean±SD. (C) Macroscopic appearance of livers. (D) Liver to total body mass ratios. […] (E) Appearance of plasma. […] (G) Relative expression of hepatic canalicular transporters (upper panel) and other genes involved in bile acid and sterol homeostasis (bottom panel).
(§1) RNA and protein analysis. RNA was isolated from cells with Trizol reagent, using a slight modification of the manufacturer's protocol to preserve miRNAs. Briefly, following homogenization in 2 mL of Trizol, […] of chloroform and […] if 2 mol/L sodium acetate pH 4.2 were added before the separation of the organic and aqueous phases. The latter was combined with […] of acid phenol:chloroform:[…], and centrifuged again. RNAs in the aqueous phase was then precipitated with 3 mL of ethanol overnight at 4° C. After centrifugation, the RNA pellet was resuspended in water and stored at −80° C. until use. Alternatively, RNAs were isolated using the mirVana miRNA Isolation Kit (Ambion). cDNAs were generated from 5 μg of DNase1-treated RNA using Superscript III and Random hexamers (Invitrogen). Real-time PCR was done with Sybr green reagent (Roche), using a LightCycler 480 real-time PCR detection system (Roche). Values were normalized to GAPDH and calculated using the comparative CT method. Protein levels were determined by Western blot, using 50 ug total liver protein extract, and a 1:1,000 dilution of anti-ABCA1 antibody (Novus Biologicals), following standard protocols.
Murine Studies. Male C57Bl/6J mice were obtained from Jackson Laboratories, and maintained in a 12 hour/12 hour light/dark cycle with unlimited access to chow and water. […] Blood was collected 5 days post-infusion, and total cholesterol and HDL-cholesterol were assayed enzymatically with the Cholesterol E and HDL-cholesterol E kits from Waco Chemicals. […] Tissues and bile were collected following overnight fasting. RCT experiments were performed as described 28. Briefly, mice were injected i.v. with oligonucleotides (5 mpk) twice for 2 weeks, and then injected i.p. with 1-1.5×10^6 [^3H]-cholesterol-loaded bone marrow-derived macrophages. Blood samples were collected at 6, 24 and 48 h after the injection of the cells. Liver, bile and the feces produced during the last 48 h were collected and flash-frozen until used. The amount of radiolabeled sterols was determined by scintillation. All studies involving mice were approved by the IACUC at Saint Louis University.
Similarly bile and plasma were extracted in the presence of internal standards for each lipid class. Id.
The inventor next tested whether silencing miR-33 could rescue mammals with statin induced ERIC or cholestasis. […] Finally, the inventor studied the mRNA levels of selected hepatic genes (FIG. 10G).

miR-33 [2] = assay: Reverse cholesterol transport with [3H]-cholesterol-loaded macrophages (Example 10); format: in vivo, C57BL/6 mice; settings: 5 mpk
Procedure: (A) Percentage of total injected dpm in the plasma of mice treated with scrambled or anti-miR-33 oligonucleotides (5 mpk, twice a week for 2 weeks), at 6, 24 at 48 h post-injection of [3H]-cholesterol-acLDL-loaded macrophages. *P<0.05 (unpaired T-test): **P<0.01 (unpaired T-test). (B) Percentage of total injected dpm in the liver of the same mice. (C) Percentage of total injected dpm in the be recovered from the gallbladder of the same mice. **P<0.01 (unpaired T-test). (D) Percentage of total injected dpm in the feces of the same mice. **P<0.01 (unpaired T-test).
(§2) Murine Studies. Male C57Bl/6J mice were obtained from Jackson Laboratories, and maintained in a 12 hour/12 hour light/dark cycle with unlimited access to chow and water. In examples 1-5, animals (n=6-8 per group) were infused with adenoviral vectors (2×10^9 pfu) via tail vein injection. Blood was collected 5 days post-infusion, and total cholesterol and HDL-cholesterol were assayed enzymatically with the Cholesterol E and HDL-cholesterol E kits from Waco Chemicals. In example 6-10 animals (8-10 week old, n=6 per group, unless noted otherwise) were infused via tail vein injection with adenoviral vectors (2×10^9 pfu) or antisense oligonucleotides (5 mpk, 2 consecutive days). Where indicated, mice were fed a 21% fat, 1% cholesterol, 0.5% cholate diet (Purina 5A8E). Tissues and bile were collected following overnight fasting. RCT experiments were performed as described 28. Briefly, mice were injected i.v. with oligonucleotides (5 mpk) twice for 2 weeks, and then injected i.p. with 1-1.5×10^6 [^3H]-cholesterol-loaded bone marrow-derived macrophages. Blood samples were collected at 6, 24 and 48 h after the injection of the cells. Liver, bile and the feces produced during the last 48 h were collected and flash-frozen until used. The amount of radiolabeled sterols was determined by scintillation. All studies involving mice were approved by the IACUC at Saint Louis University.
ANTI-miR-33 Treatment Results In Increased Reverse Cholesterol Transport. Biliary secretion is an essential component of the reverse cholesterol transport (RCT) pathway (Nijstad at al., (2011) Gastroenterology 140, 1043-1051) by which extrahepatic cholesterol is shuttled to the liver, secreted into bile and excreted through feces (Khera and Rader, (2010) Curr Atheroscler Rep 12, 73-81; Rader et al., (2009) J Lipid Res 50 Suppl, S189-194; Wang et al., (2007) J Clin Invest 117, 2216-2224; Wang and Rader, (2007) J Biol Chem 280, 8742-8747). An additional, liver-independent ROT pathway has been proposed that removes circulating cholesterol through the intestine directly into feces (van der Veen et al., (2009) J Biol Chem 284, 19211-19219). The inventor reasoned that the changes in be secretion observed following manipulation of miR-33 levels will result in altered RCT. […] Analysis of the bile recovered from the gallbladder confirmed that bile secretion is increased after suppression of miR-33 expression. […] Finally, the recovery of labeled sterols in the feces increased ˜2-fold in these same mice, compared to control animals (FIG. 8D).

miR-33 [3] = assay: Bile secretion in vivo after anti-miR-33 (Example 6); parameters: species or system mice; settings: 5 mpk i.v.
From the text: (A) Pooled bile recovered from the gallbladder of mice (n=5) injected with scrambled or anti-miR-33 oligonucleotides (5 mpk, i.v.) for 2 consecutive days. Mice were then kept for 7 days and fasted overnight before sample collection. (B) Levels of phosphatidylcholine (PC), cholesterol (chol) and bile acids present in pooled bile. (C) Relative expression of hepatic canalicular transporters in mice (n=5) following silencing of miR-33. Data are shown as mean±SD. *P<0.05 (unpaired T-test).
as §1, §2
Anti-miR-33 increases bile secretion in vivo. In an effort to understand the in vivo physiological importance of miR-33, the inventor injected mice with (5 mpk) of locked nucleic acid (LNA) scrambled sequence or LNA anti-miR-33 oligonucleotides 5-[…]-3′ (SEQ ID NO: 8) in saline (0.9% NaCl) via tail vein injection, at 5 mg/Kg (mpk) body weight. Mice were then kept with unlimited access to water and regular chow for a week. The amount of bile collected from the gallbladders of fasted mice receiving anti-miR-33 oligonucleotides was almost double of that collected from control mice (FIG. 6A). […] Next, the inventor tested the expression of several hepatocyte canalicular transporters that are known to mediate bile secretion.

[4] = test system: C57BL/6 mice on 1% cholesterol, 0.5% cholate diet; assay: Simvastatin and cholate diet induced liver damage (Example 8); format: in vivo; settings: 50 mpk simvastatin vs saline
miR-33 [5] = assay: miR-33 silencing in vivo: hepatic ABCA1 and plasma HDL-cholesterol (Example 4); parameters: species or system C57BL/6 mice; settings: 5 mg/Kg/day for 3 consecutive days, vs scrambled
Procedure: as §1
Murine Studies. Male C57Bl/6J mice were obtained from Jackson Laboratories, and maintained in a 12 hour/12 hour light/dark cycle with unlimited access to chow and water. In examples 1-5, animals (n=6-8 per group) were infused with adenoviral vectors (2×10^9 pfu) via tail vein injection. […] In example 6-10 animals (8-10 week old, n=6 per group, unless noted otherwise) were infused via tail vein injection with adenoviral vectors (2×10^9 pfu) or antisense oligonucleotides (5 mpk, 2 consecutive days). […] The amount of radiolabeled sterols was determined by scintillation. […]
miR-33 modulation of physiological sterol homeostasis in vivo. To put these latter results in a physiological context, scrambled or anti-miR-33 oligonucleotides were injected into the tail veins of C57BL/6 mice (5 mg/Kg/day for 3 consecutive days), and plasma lipoprotein and cholesterol levels determined 12 days after the infusion.

[6] = 150 mpk simvastatin and cholate diet
[7] = mice that survived at the end of the experiment, vs scrambled

5′-TGCAACTACAATGCA-3′ (LNA modifications, further chemistry not given here; listed as Homo sapiens) [LNA anti-miR-33 oligonucleotide, locked nucleic acid antisense oligonucleotide targeted to both miR-33 and miR-33 preRNA]
survival (miR-33 [1]; 5 mpk i.v. two consecutive doses, then 150 mpk simvastatin and cholate diet, n=10): with one exception, all mice receiving anti-miR-33 oligonucleotides survived for at least a week | appearance of livers (miR-33 [1]; [6]): appeared normal | appearance of plasma (miR-33 [1]; [6]): appeared clear | hepatic free fatty acids, diglycerides, triglycerides and bile acids (miR-33 [1]; 150 mpk simvastatin and cholate diet, vs control animals): marked decrease | loss of body weight (miR-33 [1]; 150 mpk simvastatin and cholate diet, vs scrambled): minimal loss | hepatic expression of Atp8b1 (miR-33 [1]; [7]): increased expression | increased hepatic expression of Abcb11 or any other canalicular transporter (miR-33 [1]; [7]): not | liver/body mass ratio (miR-33 [1]; vs control mice that succumbed to the diet and statin treatment): significantly lower | bile secretion (bile recovered from the gallbladder) (miR-33 [2]): is increased | changes in body, liver or feces mass (miR-33 [2]): did not observe changes | amount of labeled cholesterol in circulation (miR-33 [2]; 6, 24, 48 h, vs control animals): increased | amount of labeled sterols found in the liver (miR-33 [2]; 48 h): did not statistically differ | contents of labeled biliary sterols (dpm/μL of bile), increase (miR-33 [2]; corrected for volume): 2 fold | recovery of labeled sterols in the feces, increase (miR-33 [2]; feces of last 48 h, vs control animals): ~2 fold | amount of bile collected from the gallbladders (miR-33 [3]; fasted mice after a week, vs control mice): almost double | Abcb11 mRNA levels in liver (miR-33 [3]; vs scrambled): significantly increased | Atp8b1 mRNA levels in liver (miR-33 [3]; vs scrambled): significantly increased | concentration of phosphatidylcholine in bile (miR-33 [3]; vs scrambled): slightly elevated | mRNA levels of other canalicular transporters (Abcg5, Abcg8, Abcb4) in liver (miR-33 [3]; vs scrambled): remained unchanged | overall content of bile acids in pooled bile (miR-33 [3]; vs scrambled): did not change | overall content of cholesterol in pooled bile (miR-33 [3]; vs scrambled): did not change

CCC(C)(C)C(=O)O[C@H]1C[C@@H](C)C=C2C=C[C@H](C)[C@H](CC[C@@H]3C[C@@H](O)CC(=O)O3)[C@H]21 [simvastatin]
reduction of hepatic Abcb11 levels [4]: ~40%

anti-miR-33 oligonucleotides: anti-miR-33 oligonucleotides injected in Example 4; sequence and chemistry not stated there (antisense TGCAACTACAATGCA; LNA-modified, pattern not given here; listed as Homo sapiens)
increase in HDL-cholesterol (miR-33 [5]; 12 days after infusion): 10-15% | increase in hepatic ABCA1 mRNA levels (miR-33 [5]; tail vein): 2 fold | increase in hepatic ABCA1 protein levels (miR-33 [5]; tail vein): 2 fold
